{"source": "patent US10787446B2", "about": "(GENENTECH, INC., priority 2015, dated 2020)"}
{"molecular_target": "T1, hNav1.7 and the β1 subunit (Homo sapiens, UniProt Q15858)", "T1 construct": "expressed in transfected cells", "T1 sequence (Q15858 whole entry)": "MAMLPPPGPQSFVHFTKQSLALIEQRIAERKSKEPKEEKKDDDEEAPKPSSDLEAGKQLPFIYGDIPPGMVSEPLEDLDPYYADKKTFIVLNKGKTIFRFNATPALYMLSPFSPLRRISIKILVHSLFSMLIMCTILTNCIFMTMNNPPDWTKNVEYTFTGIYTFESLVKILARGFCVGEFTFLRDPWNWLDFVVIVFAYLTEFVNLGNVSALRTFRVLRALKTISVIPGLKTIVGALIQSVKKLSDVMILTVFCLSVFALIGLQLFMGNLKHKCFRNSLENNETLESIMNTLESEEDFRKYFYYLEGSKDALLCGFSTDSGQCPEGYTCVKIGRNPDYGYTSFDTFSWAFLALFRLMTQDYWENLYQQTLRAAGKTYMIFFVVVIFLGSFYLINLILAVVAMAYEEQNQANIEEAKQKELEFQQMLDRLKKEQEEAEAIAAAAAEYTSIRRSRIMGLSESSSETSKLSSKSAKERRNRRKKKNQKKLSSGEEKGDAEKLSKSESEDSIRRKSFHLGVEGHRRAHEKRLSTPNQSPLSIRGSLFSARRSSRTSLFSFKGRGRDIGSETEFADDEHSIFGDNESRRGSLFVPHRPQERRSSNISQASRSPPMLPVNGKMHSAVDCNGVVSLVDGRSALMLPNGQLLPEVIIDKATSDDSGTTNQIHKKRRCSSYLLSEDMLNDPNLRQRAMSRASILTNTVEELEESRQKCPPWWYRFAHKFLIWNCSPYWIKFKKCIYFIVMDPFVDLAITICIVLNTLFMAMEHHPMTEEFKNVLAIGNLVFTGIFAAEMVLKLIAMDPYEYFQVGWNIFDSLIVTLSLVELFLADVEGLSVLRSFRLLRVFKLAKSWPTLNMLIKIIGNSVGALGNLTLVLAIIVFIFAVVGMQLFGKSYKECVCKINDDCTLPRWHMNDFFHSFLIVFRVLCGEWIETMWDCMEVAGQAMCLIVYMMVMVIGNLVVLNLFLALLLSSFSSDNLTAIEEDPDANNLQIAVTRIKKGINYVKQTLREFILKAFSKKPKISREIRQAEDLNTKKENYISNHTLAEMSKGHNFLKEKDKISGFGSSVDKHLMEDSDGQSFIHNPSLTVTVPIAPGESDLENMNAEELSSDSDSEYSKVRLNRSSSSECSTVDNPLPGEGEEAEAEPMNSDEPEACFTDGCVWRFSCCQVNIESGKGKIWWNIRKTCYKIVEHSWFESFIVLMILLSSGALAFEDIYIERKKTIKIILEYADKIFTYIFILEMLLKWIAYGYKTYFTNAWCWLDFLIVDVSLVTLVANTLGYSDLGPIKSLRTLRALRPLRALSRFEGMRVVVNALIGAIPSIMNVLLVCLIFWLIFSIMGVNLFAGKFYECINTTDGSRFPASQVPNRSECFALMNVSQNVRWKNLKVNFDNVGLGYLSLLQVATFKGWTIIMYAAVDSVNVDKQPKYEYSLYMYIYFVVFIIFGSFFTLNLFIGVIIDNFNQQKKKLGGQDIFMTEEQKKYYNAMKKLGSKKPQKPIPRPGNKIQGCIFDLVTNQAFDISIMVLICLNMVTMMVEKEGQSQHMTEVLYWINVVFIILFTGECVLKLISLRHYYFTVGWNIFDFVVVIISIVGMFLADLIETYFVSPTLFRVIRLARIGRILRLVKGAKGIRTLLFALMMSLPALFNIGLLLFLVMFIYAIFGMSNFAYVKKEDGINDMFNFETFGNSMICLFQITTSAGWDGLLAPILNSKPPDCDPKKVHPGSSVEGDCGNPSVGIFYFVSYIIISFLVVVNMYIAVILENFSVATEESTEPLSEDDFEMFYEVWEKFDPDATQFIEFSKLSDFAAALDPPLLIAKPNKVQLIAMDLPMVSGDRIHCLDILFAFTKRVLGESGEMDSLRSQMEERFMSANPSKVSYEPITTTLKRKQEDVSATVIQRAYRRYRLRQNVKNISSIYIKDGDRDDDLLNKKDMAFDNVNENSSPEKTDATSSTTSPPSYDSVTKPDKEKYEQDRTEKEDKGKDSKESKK", "T1 sequence (Q07699 19-218 partner)": "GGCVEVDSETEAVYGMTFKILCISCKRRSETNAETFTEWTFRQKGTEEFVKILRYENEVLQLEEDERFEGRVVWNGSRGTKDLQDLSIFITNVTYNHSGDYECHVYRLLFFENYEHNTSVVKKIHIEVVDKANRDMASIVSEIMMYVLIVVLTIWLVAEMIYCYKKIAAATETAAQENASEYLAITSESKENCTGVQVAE", "assay": "Tritiated compound competitive binding to membranes from cells heterologously expressing hNav1.7 and the β1 subunit (LBA)", "conditions": "competition with 100 pM [3H]compound, 18 h, room temperature; IC50 by 4 parameter logistic model", "procedure,_shortened": "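Membranes were incubated 18 h at room temperature with 100 pM [3H]-labelled NaV1.7 inhibitor and increasing test compound in 100 mM NaCl, 20 mM Tris HCl, pH 7.4. Bound radioligand was filtered on PEI-soaked GF/C, washed, and counted by scintillation. IC50 from a 4-parameter logistic fit of % inhibition.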", "units": {"Nav1.7 (LBA)": "µM"}}
{"smiles": "Cc1cc([C@@H]2C[C@H](C(F)(F)F)CCN2[C@H]2CCOc3cc(S(=O)(=O)Nc4ncns4)ccc32)n(C)n1", "note": "[Example 203, (S)-4-((2S,4R)-2-(1,3-dimethyl-1H-pyrazol-5-yl)-4-(trifluoromethyl)piperidin-1-yl)-N-(1,2,4-thiadiazol-5-yl)chroman-7-sulfonamide]", "Nav1.7 (LBA)": 0.00824}
{"smiles": "O=S(=O)(Nc1ncns1)c1ccc2c(c1)OCC[C@@H]2N1CC[C@@H](C(F)(F)F)C[C@H]1c1ccc(F)c(Cl)c1", "note": "[Example 204, (S)-4-((2S,4R)-2-(3-chloro-4-fluorophenyl)-4-(trifluoromethyl)piperidin-1-yl)-N-(1,2,4-thiadiazol-5-yl)chroman-7-sulfonamide]", "Nav1.7 (LBA)": 0.00398}
{"smiles": "NC(=O)c1cccc([C@@H]2C[C@H](C(F)(F)F)CCN2[C@H]2CCOc3cc(S(=O)(=O)Nc4ncns4)ccc32)c1", "note": "[Example 205, 3-((2S,4R)-1-((S)-7-(N-(1,2,4-thiadiazol-5-yl)sulfamoyl)chroman-4-yl)-4-(trifluoromethyl)piperidin-2-yl)benzamide]", "Nav1.7 (LBA)": 0.000907}
{"smiles": "Nc1cccc([C@@H]2C[C@H](C(F)(F)F)CCN2[C@H]2CCOc3cc(S(=O)(=O)Nc4nccs4)c(F)cc32)n1", "note": "[Example 206, (S)-4-((2S,4R)-2-(6-aminopyridin-2-yl)-4-(trifluoromethyl)piperidin-1-yl)-6-fluoro-N-(thiazol-2-yl)chroman-7-sulfonamide]", "Nav1.7 (LBA)": 0.000515}
{"smiles": "O=S(=O)(Nc1ncns1)c1ccc2c(c1)OCC[C@@H]2NC(CCC(F)(F)F)c1ccccc1", "note": "(stereo partly drawn) [Example 207, (4S)—N-(1,2,4-thiadiazol-5-yl)-4-((4,4,4-trifluoro-1-phenylbutyl)amino)chroman-7-sulfonamide]", "Nav1.7 (LBA)": 0.039}
{"smiles": "O=S(=O)(Nc1nccs1)c1cc2c(cc1F)[C@H](N1CC[C@H](C(F)(F)F)C[C@@H]1c1ccc(F)cc1)CCO2", "note": "[Example 209, (R)-6-fluoro-4-((2R,4S)-2-(4-fluorophenyl)-4-(trifluoromethyl)piperidin-1-yl)-N-(thiazol-2-yl)chromane-7-sulfonamide]", "Nav1.7 (LBA)": 0.0683}
{"smiles": "O=S(=O)(Nc1nccs1)c1cc2c(cc1F)[C@H](N1CC[C@@H](C(F)(F)F)C[C@H]1c1ccn[nH]1)CCO2", "note": "[Example 210, (R)-4-((2S,4R)-2-(1H-pyrazol-5-yl)-4-(trifluoromethyl)piperidin-1-yl)-6-fluoro-N-(thiazol-2-yl)chromane-7-sulfonamide]", "Nav1.7 (LBA)": 0.0375}
{"smiles": "O=S(=O)(Nc1nccs1)c1cc2c(cc1F)[C@@H](N1CC[C@H](C(F)(F)F)C[C@@H]1c1ccn[nH]1)CCO2", "note": "[Example 212, (S)-4-((2R,4S)-2-(1H-pyrazol-5-yl)-4-(trifluoromethyl)piperidin-1-yl)-6-fluoro-N-(thiazol-2-yl)chromane-7-sulfonamide]", "Nav1.7 (LBA)": 0.0033}
{"smiles": "O=S(=O)(Nc1nccs1)c1cc2c(cc1F)[C@H](N1CC[C@H](C(F)(F)F)C[C@@H]1c1ccn[nH]1)CCO2", "note": "[Example 213, (R)-4-((2R,4S)-2-(1H-pyrazol-5-yl)-4-(trifluoromethyl)piperidin-1-yl)-6-fluoro-N-(thiazol-2-yl)chromane-7-sulfonamide]", "Nav1.7 (LBA)": 0.0274}
{"smiles": "O=S(=O)(Nc1nccs1)c1cc2c(cc1F)[C@H](N1CC[C@@H](C(F)(F)F)C[C@H]1c1ccc(F)cc1)CCO2", "note": "[Example 214, (R)-6-fluoro-4-((2S,4R)-2-(4-fluorophenyl)-4-(trifluoromethyl)piperidin-1-yl)-N-(thiazol-2-yl)chromane-7-sulfonamide]", "Nav1.7 (LBA)": 0.00144}
{"smiles": "O=S(=O)(Nc1nccs1)c1cc2c(cc1F)[C@@H](N1CC[C@H](C(F)(F)F)C[C@@H]1c1ccc(F)cc1)CCO2", "note": "[Example 215, (S)-6-fluoro-4-((2R,4S)-2-(4-fluorophenyl)-4-(trifluoromethyl)piperidin-1-yl)-N-(thiazol-2-yl)chromane-7-sulfonamide]", "Nav1.7 (LBA)": 0.633}
{"smiles": "CC(C)(C)OC(=O)N1CCN([C@@H]2CCOc3cc(S(=O)(=O)Nc4ncns4)ccc32)[C@H](c2ccc(F)cc2)C1", "note": "[Example 216, Tert-butyl (R)-4-((R)-7-(N-(1,2,4-thiadiazol-5-yl)sulfamoyl)chroman-4-yl)-3-(4-fluorophenyl)piperazine-1-carboxylate]", "Nav1.7 (LBA)": 0.213}
{"smiles": "CC(C)(C)OC(=O)N1CCN([C@H]2CCOc3cc(S(=O)(=O)Nc4ncns4)ccc32)[C@H](c2ccc(F)cc2)C1", "note": "[Example 217, tert-butyl (R)-4-((S)-7-(N-(1,2,4-thiadiazol-5-yl)sulfamoyl)chroman-4-yl)-3-(4-fluorophenyl)piperazine-1-carboxylate]", "Nav1.7 (LBA)": 0.0183}
{"smiles": "O=S(=O)(Nc1ncns1)c1ccc2c(c1)OCC[C@@H]2N1CCNC[C@H]1c1ccc(F)cc1", "note": "[Example 218, (S)-4-((R)-2-(4-fluorophenyl)piperazin-1-yl)-N-(1,2,4-thiadiazol-5-yl)chromane-7-sulfonamide]", "Nav1.7 (LBA)": 0.0941}
{"smiles": "O=S(=O)(Nc1ncns1)c1ccc2c(c1)OCC[C@@H]2N1CCN(CC(F)(F)F)C[C@H]1c1ccc(F)cc1", "note": "[Example 219, (S)-4-((R)-2-(4-fluorophenyl)-4-(2,2,2-trifluoroethyl)piperazin-1-yl)-N-(1,2,4-thiadiazol-5-yl)chromane-7-sulfonamide]", "Nav1.7 (LBA)": 0.00778}
{"smiles": "O=S(=O)(Nc1ncns1)c1ccc2c(c1)OCC[C@H]2N1CCN(CC(F)(F)F)C[C@H]1c1ccc(F)cc1", "note": "[Example 220, (R)-4-((R)-2-(4-fluorophenyl)-4-(2,2,2-trifluoroethyl)piperazin-1-yl)-N-(1,2,4-thiadiazol-5-yl)chromane-7-sulfonamide]", "Nav1.7 (LBA)": 0.0494}
{"smiles": "CN1CCN([C@H]2CCOc3cc(S(=O)(=O)Nc4ncns4)ccc32)[C@H](c2ccc(F)cc2)C1", "note": "[Example 221, (S)-4-((R)-2-(4-fluorophenyl)-4-methylpiperazin-1-yl)-N-(1,2,4-thiadiazol-5-yl)chromane-7-sulfonamide]", "Nav1.7 (LBA)": 0.223}
{"smiles": "O=S(=O)(Nc1ncns1)c1ccc2c(c1)OCC[C@@H]2N1CCN(CC(F)F)C[C@H]1c1ccc(F)cc1", "note": "[Example 222, (S)-4-((R)-4-(2,2-difluoroethyl)-2-(4-fluorophenyl)piperazin-1-yl)-N-(1,2,4-thiadiazol-5-yl)chromane-7-sulfonamide]", "Nav1.7 (LBA)": 0.0262}
{"smiles": "O=S(=O)(Nc1ncns1)c1ccc2c(c1)OCC[C@@H]2N1CCN(CCF)C[C@H]1c1ccc(F)cc1", "note": "[Example 223, (S)-4-((R)-4-(2-fluoroethyl)-2-(4-fluorophenyl)piperazin-1-yl)-N-(1,2,4-thiadiazol-5-yl)chromane-7-sulfonamide]", "Nav1.7 (LBA)": 0.125}
{"smiles": "CCN1CCN([C@H]2CCOc3cc(S(=O)(=O)Nc4ncns4)ccc32)[C@H](c2ccc(F)cc2)C1", "note": "[Example 224, (S)-4-((R)-4-ethyl-2-(4-fluorophenyl)piperazin-1-yl)-N-(1,2,4-thiadiazol-5-yl)chromane-7-sulfonamide]", "Nav1.7 (LBA)": 0.174}
{"smiles": "O=S(=O)(Nc1ncns1)c1ccc2c(c1)OCC[C@@H]2N1CCN(S(=O)(=O)C(F)(F)F)C[C@H]1c1ccc(F)cc1", "note": "[Example 225, (S)-4-((R)-2-(4-fluorophenyl)-4-((trifluoromethyl)sulfonyl)piperazin-1-yl)-N-(1,2,4-thiadiazol-5-yl)chromane-7-sulfonamide]", "Nav1.7 (LBA)": 0.0057}
{"smiles": "CS(=O)(=O)N1CCN([C@H]2CCOc3cc(S(=O)(=O)Nc4ncns4)ccc32)[C@H](c2ccc(F)cc2)C1", "note": "[Example 226, (S)-4-((R)-2-(4-fluorophenyl)-4-(methylsulfonyl)piperazin-1-yl)-N-(1,2,4-thiadiazol-5-yl)chromane-7-sulfonamide]", "Nav1.7 (LBA)": 0.0305}
{"smiles": "O=S(=O)(Nc1nncs1)c1cc2c(cc1F)[C@@H](N1CC[C@@H](C(F)(F)F)C[C@H]1c1ccc(F)cc1)CCO2", "note": "[Example 231, (S)-6-fluoro-4-((2S,4R)-2-(4-fluorophenyl)-4-(trifluoromethyl)piperidin-1-yl)-N-(1,3,4-thiadiazol-2-yl)chroman-7-sulfonamide]", "Nav1.7 (LBA)": 0.00495}
